Test results reported in publication PMC5995905, “Confirmation of high-throughput screening data and novel mechanistic insights into VDR-xenobiotic interactions by orthogonal assays” (Scientific Reports, 2018).
“And” between values parts separate entries of the source, which are not always exact repeats. Equal entries are not always repeated. Structures can show the parent of a compound that is named as a salt. Where two headings read alike, the source gives them in different places. Blank lines part the entries; values can stand above or below the molecule they belong to.

Columns and labels:
human VDR [1] = biological target: T1, human VDR (Homo sapiens, UniProt P11473); experiment: Transient transactivation assay (CYP24-Luc), agonist mode, HEK293T cells; details: for Derived Efficacy (fold induction): top asymptote of Hill or Gain-Loss model, maximum response
T1 sequence (P11473 1-427): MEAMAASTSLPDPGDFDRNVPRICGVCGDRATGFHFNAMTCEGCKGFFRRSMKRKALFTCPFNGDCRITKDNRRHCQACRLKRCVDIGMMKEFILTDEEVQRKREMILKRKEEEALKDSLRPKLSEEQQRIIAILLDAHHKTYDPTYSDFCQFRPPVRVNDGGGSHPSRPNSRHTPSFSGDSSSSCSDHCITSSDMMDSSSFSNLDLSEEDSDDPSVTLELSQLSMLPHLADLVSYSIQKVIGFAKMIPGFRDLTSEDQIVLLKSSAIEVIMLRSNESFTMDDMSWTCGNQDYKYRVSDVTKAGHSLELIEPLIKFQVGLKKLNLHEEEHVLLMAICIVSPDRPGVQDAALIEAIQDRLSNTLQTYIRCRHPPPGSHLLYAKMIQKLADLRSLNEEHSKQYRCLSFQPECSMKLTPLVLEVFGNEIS

[2] = biological target: human VDR ligand-binding domain; design: method as in PMID 21543282; details: agonist mode; Tox21 qHTS data set; * = range of values; cited from earlier work
[3] = biological target: T2, VDR:RXR, VDR:SRC-1 and VDR:NCoR interactions (Homo sapiens, UniProt P11473); experiment: Mammalian 2-hybrid assay, summary in words of VDR coregulator interactions; format: cell-based
T2 sequence (P11473 1-427): T1 sequence (P11473 1-427)

human VDR [4] = biological target: T1, human VDR; experiment: Transient transactivation assay (CYP24-Luc), antagonist mode with 3 nM 1,25D3, HEK293T cells; format: cell-based; details: for IC50: read-out: Derived IC 50 (Transient transactivation assay); for AC50: read-out: AC50
[5] = biological target: human VDR ligand-binding domain; design: method as in PMID 21543282; details: read-out: Tox21 IC 50, cited from earlier work
[6] = Derived AC50 (Transient transactivation assay), agonist mode, HEK293T cells, CYP24A1-Luc
[7] = agonists, orthogonal transient transactivation assay, HEK293T cells
[8] = top asymptote of Hill or Gain-Loss model, maximum response
[9] = antagonist mode, Tox21 qHTS data set
[10] = antagonists, transient transactivation assay in the presence of 3 nM 1,25D3
[11] = inhibition of 3 nM 1,25D3-induced response, HEK293T cells, unit given in Fig 3 legend

AC50 (human VDR [1]; [6]): 13800 nM
Activity (human VDR [1]; [7]): Active
Derived Efficacy (fold induction) (human VDR [1]): 14.1669 fold induction
Molecule: O=S(=O)(O)c1ccc2ccc(S(=O)(=O)O)cc2c1 [2,7 Naphthalene disulfonic acid]
AC50 [2]: 14500 nM

AC50 (human VDR [1]; [6]): 793 nM
Activity (human VDR [1]; [7]): Active
Derived Efficacy (fold induction) (human VDR [1]): 17.3255 fold induction
Molecule: Cc1cc(=O)oc2cc(N(C)C)ccc12 [7-(Dimethylamino)-4-methylcoumarin]
AC50 [2]: 2880 to 21500 nM

Molecule: O=S(=O)(O)c1ccccc1 [Benzenesulfonic acid]
pattern of VDR:coregulator interaction facilitated by the ligand [3]: did not facilitate VDR:RXR or VDR:SRC-1 interactions under any condition
Activity (human VDR [1]): Active
AC50 (human VDR [1]; read-out: Derived AC50 (Transient transactivation assay)): 772 nM
Derived Efficacy (fold induction) (human VDR [1]): 13.6777 fold induction
AC50 [2]: 9900 nM

Molecule: CCC[CH2][Sn]([Cl])([Cl])[CH2]CCC [Dibutyltin dichloride]
pattern of change of 1,25D3 induced VDR:coregulator interaction [3]: consistently attenuate recruitment VDR:RXR and VDR:SRC-1 in both the presence and absence of co-expressed coregulators
Activity (human VDR [4]): Active
Derived Efficacy (fold inhibition) (human VDR [4]): 20.5748 fold inhibition
IC50 (human VDR [4]): 540 nM and 542 nM
IC50 [5]: 82.3 nM

Molecule: C=C1CC[C@H](O)C/C1=C/C=C1\CCC[C@]2(C)[C@@H]([C@H](C)/C=C/[C@H](C)C(C)C)CC[C@@H]12 [Ergocalciferol, reference compound]
AC50 [2]: 4280 to 9020 nM

Derived Efficacy (fold inhibition) (human VDR [4]; [8]): 101.7383 fold inhibition
Molecule: O=C([O-])c1ccccc1-c1c2ccc(=O)cc-2oc2cc([O-])ccc12.[Na+].[Na+] [Fluorescein sodium, reference compound]
IC50 [5, 9]: 356 nM

Molecule: N#C/C(=C1/SCC(c2ccccc2Cl)S1)n1ccnc1 (stereo not shown) [Lanoconazole, reference compound]
AC50 [2]: 21100 nM

Activity (human VDR [1]; [7]): very weak agonist activity
Activity (human VDR [4]; [10]): Active
Activity (human VDR [4]; antagonists, transient transactivation assay in the presence of 3 nM 1,25D3, listed as menadiol): moderate to marked synergistic activity
IC50 (human VDR [4]; [11]): 3490 nM and 3500 nM
AC50 (human VDR [4]): 45800 nM
Derived Efficacy (fold inhibition) (human VDR [4]; [8]): 101.7383 fold inhibition
Molecule: Cc1cc(O)c2ccccc2c1O [Menadiol, reference compound]
IC50 [5, 9]: 979 nM

AC50 (human VDR [1]; [6]): 446 nM
Activity (human VDR [1]; [7]): Active
Derived Efficacy (fold induction) (human VDR [1]): 44.5165 fold induction
Molecule: COC(=O)c1nc(Cl)c(Cl)nc1N [Methyl 3-amino-5,6-dichloropyrazine-2-carboxylate]
AC50 [2]: 8780 nM

Molecule: [Au+].[C-]#N.[C-]#N.[K+] [Potassium dicyanoaurate]
pattern of change of 1,25D3 induced VDR:coregulator interaction [3]: selectively inhibited VDR:SRC-1 interactions only in the presence of full length wild type RXR
Activity (human VDR [4]): Active
Derived Efficacy (fold inhibition) (human VDR [4]): 76.1807 fold inhibition
IC50 (human VDR [4]): 98.5 nM
IC50 [5]: 91.2 nM

Activity (human VDR [4]; [10]): Active
AC50 (human VDR [4]; experimental AC50 as listed in Fig 4a, antagonists): 668 nM
IC50 (human VDR [4]; [11]): 555 nM
Derived Efficacy (fold inhibition) (human VDR [4]; [8]): 68.3825 fold inhibition
Molecule: Nc1ccc2cc3ccc(N)cc3nc2c1 [Proflavine hydrochloride]
IC50 [5, 9]: 3410 nM

Molecule: CC/C(=C(\c1ccccc1)c1ccc(OCCN(C)C)cc1)c1ccccc1 [Tamoxifen citrate, reference compound]
AC50 [2]: 33000 to 56000 nM

Activity (human VDR [4]; [10]): Active
IC50 (human VDR [4]; [11]): 283 nM
Derived Efficacy (fold inhibition) (human VDR [4]; [8]): 79.1108 fold inhibition
Molecule: C[C@]1(Cn2ccnn2)[C@H](C(=O)O)N2C(=O)C[C@H]2S1(=O)=O [Tazobactam sodium, reference compound]
IC50 [5, 9]: 1980 nM

Molecule: [OH-].c1cc[c]([Sn+]([c]2ccccc2)[c]2ccccc2)cc1 [Triphenyltin hydroxide]
pattern of change of 1,25D3 induced VDR:coregulator interaction [3]: consistently attenuate recruitment VDR:RXR and VDR:SRC-1 in both the presence and absence of co-expressed coregulators
Activity (human VDR [4]): Active
Derived Efficacy (fold inhibition) (human VDR [4]): 89.3748 fold inhibition
IC50 (human VDR [4]): 45.4 nM
IC50 [5]: 92.9 nM

Molecule: Cadmium dinitrate
pattern of change of 1,25D3 induced VDR:coregulator interaction [3]: enhanced recruitment of VDR:RXR and VDR:SRC-1 in both the presence and absence of co-expressed coregulators
Activity (human VDR [4]): Active
Derived Efficacy (fold inhibition) (human VDR [4]): 82.6111 fold inhibition
IC50 [5]: 167 nM

Molecule: Tributyltin chloride
IC50 [5]: 959 nM
